Measurements reported in patent publication US11578055B2, “Triazacyclododecansulfonamide (“TCD”)-based protein secretion inhibitors” (KEZAR LIFE SCIENCES, priority 2018, dated 2023).
Read-outs that look alike come from different tables or passages of the source.

Experiments:
[1] = In Vitro Microsome Stability Assay (human); type: in vitro ADME
In short: (§1)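 Test article, added from a 0.25 mM DMSO stock, was incubated with liver microsomes (20 mg/mL stock) in 0.1 M potassium phosphate at 37° C, with the reaction started by NADPH. Samples were quenched with acetonitrile containing internal standard at 0 and 30 min and analysed by LC-MS/MS. Values are % remaining at 30 min versus 0 min, using IS-normalised AUC ratios.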

[2] = test system: PD1 signal sequence plus 10 amino acids fused to Gaussia Luciferase (PD1-ss+10aa/Gaussia Luciferase); assay: Dox Induced PD1-ss-Gluc Assay; type: cell-based; details: 24 hr, read-out: 24 hr Dox Inducible PD1ssGluc 293FRT/TO: Mean IC50
In short: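 Compound dilutions in DMSO/media containing doxycycline were applied to a stable, inducible 293 T-REx line carrying the luciferase fusion, then incubated at 37 °C, 5% CO2. Where stereochemistry is not drawn, values relate to isomer mixtures.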

[3] = In Vitro Microsome Stability Assay (monkey); type: in vitro ADME
In short: as §1

[4] = test system: multiple myeloma cell line U266B1; assay: U266 Cell Viability Assay; type: cell-based, human; details: Homo sapiens, U-266, 48 hr
In short: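 Viability was measured by CellTiter-Glo luminescence after 48 h compound exposure at 37° C, 5% CO2. The cells were U266B1 multiple myeloma cells grown in RPMI 1640 plus 10% FBS. Where stereochemistry is not shown, values apply to the stereoisomer mixture.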

[5] = test system: multiple myeloma cell line NCl-H929; assay: H929 Cell Viability Assay; type: cell-based, human; details: Homo sapiens, NCI-H929, 48 h
In short: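 Viability was determined by CellTiter-Glo luminescence after a 48 h, 37 °C exposure of NCI-H929 cells to serial compound dilutions in medium containing 10% FBS. Where stereochemistry is not shown, values refer to a mix of stereoisomers.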

[6] = In Vitro Microsome Stability Assay (rat); type: in vitro ADME
In short: as §1

[7] = In Vitro Microsome Stability Assay (mouse); type: in vitro ADME
In short: as §1

[8] = test system: full length IL-2 (amino acids 1-153) fused to Gaussia Luciferase; assay: Dox Induced IL2-FL-Gluc Assay; type: cell-based; details: 24 hr, read-out: 24 hr Dox Inducible IL2FLGluc 293FRT/TO: Mean IC50
Text: FIp-In 293 T-REx™ cells were transfected with pcDNA™5/FRT/TO plasmid inserted with cDNA encoding Gaussia Luciferase fused to the 3′ end of cDNA encoding full length IL-2 (amino acids 1-153). Transfected cells were selected for resistance to the selectable markers Hygromycin and Blasticidin to create a stable cell line that contained the IL-2-FL/Gaussia Luciferase cDNA insert whose expression was regulated under the T-REx™ system. The day before assay, cells were trypsinized and plated in 384-well tissue culture plates. The next day, compound dilutions in DMSO/media containing doxycycline were added to the wells and incubated at 37° C., 5% CO2.
For chemical structures that include one or more stereoisomers, but are illustrated without indicating stereochemistry, the assay data refers to a mixture of stereoisomers.

[9] = test system: full length TNFα (amino acids 1-233) fused to Gaussia Luciferase; assay: Dox Induced TNFα-FL-Gluc Assay; type: cell-based; details: 24 hr, read-out: 24 hr Dox Inducible TNFaFLGluc 293FRT/TO: Mean IC50
In short: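 Compounds diluted in DMSO/medium with doxycycline were incubated at 37° C, 5% CO2 with 293 T-REx cells stably carrying a Tet-regulated TNFα(1-233)-Gaussia luciferase construct. Data for structures drawn without stereochemistry refer to stereoisomer mixtures.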

[10] = human liver microsomes, 30 min w/ NADPH
[11] = monkey liver microsomes, 30 min w/ NADPH
[12] = rat liver microsomes, 30 min w/ NADPH
[13] = mouse liver microsomes, 30 min w/ NADPH
[14] = U266, read-out: 48 hr U266 Viability Celltiter-Glo: Mean EC50
[15] = H929, read-out: 48 hr H929 Viability Celltiter-Glo: Mean EC50

SMILES | Liver Microsome Stability-% Left after 30 min w/ NADPH (%) Human [1, 10] | IC50 ([2]; Dox inducible, 293FRT/TO cells) | Liver Microsome Stability-% Left after 30 min w/ NADPH (%) Monkey [3, 11] | EC50 ([4]; U266, Celltiter-Glo) | EC50 ([5]; H929, Celltiter-Glo) | Liver Microsome Stability-% Left after 30 min w/ NADPH (%) Rat [6, 12] | Liver Microsome Stability-% Left after 30 min w/ NADPH (%) Mouse [7, 13] | IC50 ([8]; Dox inducible, 293FRT/TO cells) | IC50 ([9]; Dox inducible, 293FRT/TO cells) | Liver Microsome Stability-% Left after 30 min w/ NADPH (%) Human ([1]; human, 30 min, NADPH) | IC50 ([2]; 293FRT/TO) | Liver Microsome Stability-% Left after 30 min w/ NADPH (%) Monkey ([3]; monkey, 30 min, NADPH) | EC50 [4, 14] | EC50 [5, 15] | Liver Microsome Stability-% Left after 30 min w/ NADPH (%) Rat ([6]; rat, 30 min, NADPH) | Liver Microsome Stability-% Left after 30 min w/ NADPH (%) Mouse ([7]; mouse, 30 min, NADPH) | IC50 ([8]; 293FRT/TO) | IC50 ([9]; 293FRT/TO)
CCc1ccc2c(c1)CCN(S(=O)(=O)N1CCCN(CC3CCCCC3)CCCN(S(=O)(=O)c3ccc(N(C)C)cc3)C[C@H](C)C1)C2 [A136, 4-{[(3S)-9-(cyclohexylmethyl)-5-[(6-ethyl-1,2,3,4-tetrahydroisoquinolin-2-yl)sulfonyl]-3-methyl-1,5,9-triazacyclododecan-1-yl]sulfonyl}-N,N-dimethylaniline] | 65.3% | 0.0265 µM | 23.2% | > 25 µM | 1.73 µM | 26.6% | 14.3% | 0.101 µM | 0.544 µM | – | – | – | – | – | – | – | – | –
Cc1cccc(N2CCN(S(=O)(=O)N3CCCN(CC4CCCCC4)CCCN(S(=O)(=O)c4ccc(N(C)C)cc4)C[C@H](C)C3)CC2)c1 [A98, 4-{[(3S)-9-(cyclohexylmethyl)-3-methyl-5-{[4-(3-methylphenyl)piperazin-1-yl]sulfonyl}-1,5,9-triazacyclododecan-1-yl]sulfonyl}-N,N-dimethylaniline] | – | – | – | – | – | – | – | – | – | 57.5% | 0.202 µM | 26.9% | > 25 µM | > 25 µM | 32.8% | 55.2% | 0.351 µM | 7.34 µM
C[C@H]1CN(S(=O)(=O)c2ccc(N(C)C)cc2)CCCN(CC2CCCCC2)CCCN(S(=O)(=O)N2CCNCC2)C1 [A155, 4-{[(3S)-9-(cyclohexylmethyl)-3-methyl-5-(piperazine-1-sulfonyl)-1,5,9-triazacyclododecan-1-yl]sulfonyl}-N, N-dimethylaniline] | 17.8% | 1.35 µM | 4.86% | > 25 µM | 7.8 µM | 38.8% | 16.8% | 3.48 µM | – | – | – | – | – | – | – | – | – | –
C[C@@H](CN(C)S(=O)(=O)c1ccc(N(C)C)cc1)CN(C)S(=O)(=O)N1CCc2cc(Cl)ccc2C1 [B12] | – | 5.66 µM | – | > 25 µM | > 25 µM | – | – | > 25 µM | > 25 µM | – | – | – | – | – | – | – | – | –
C[C@@H](CNS(=O)(=O)c1ccc(N(C)C)cc1)CNS(=O)(=O)N1CCc2cc(Cl)ccc2C1 [B10, (S)-6-chloro-N-(3-((4-(dimethylamino)phenyl)sulfonamido)-2-methylpropyl)-3,4-dihydroisoquinoline-2(1H)-sulfonamide] | – | 16.5 µM | – | > 25 µM | > 25 µM | – | – | 6.92 µM | > 25 µM | – | – | – | – | – | – | – | – | –
C[C@H](CNS(=O)(=O)c1ccc(N(C)C)cc1)CNS(=O)(=O)N1CCc2cc(Cl)ccc2C1 [B11, N-[(2 R)-3-{[(6-chloro-1,2,3,4-tetrahydroisoquinolin-2-yl)sulfonyl]amino}-2-methylpropyl]-4-(dimethylamino)benzene-1-sulfonamide] | – | > 25 µM | – | > 25 µM | > 25 µM | – | – | > 25 µM | > 25 µM | – | – | – | – | – | – | – | – | –
C=C1CN(S(=O)(=O)c2ccc(N(C)C)cc2)CCCN(CC2CCCCC2)CCCN(S(=O)(=O)N2CCC[C@H](c3ccccc3)C2)C1 [A49, 4-{[9-(cyclohexylmethyl)-3-methylidene-5-{[(3 R)-3-phenylpiperidin-1-yl]sulfonyl}-1,5,9-triazacyclododecan-1-yl]sulfonyl}-N,N-dimethylaniline] | – | – | – | – | – | – | – | – | – | 3.5% | 0.407 µM | 9.36% | > 25 µM | > 25 µM | 16.4% | 11.8% | – | > 25 µM
C=C1CN(S(=O)(=O)c2ccc(N(C)C)cc2)CCCN(CC2CCCCC2)CCCN(S(=O)(=O)N2CCC(C3CCOCC3)CC2)C1 [A78, 4-{[9-(cyclohexylmethyl)-3-methylidene-5-{[4-(oxan-4-yl)piperidin-1-yl]sulfonyl}-1,5,9-triazacyclododecan-1-yl]sulfonyl}-N,N-dimethylaniline] | – | – | – | – | – | – | – | – | – | 0.2% | 0.36 µM | 0.11% | > 25 µM | > 25 µM | 0.25% | 0.15% | – | > 25 µM
CC1CCCCN1S(=O)(=O)N1CCCN(CC2CCCCC2)CCCN(S(=O)(=O)c2ccc(N(C)C)cc2)CC2(CC2)C1 (stereo not shown) [A20, 4-{[9-(cyclohexylmethyl)-13-[(2-methylpiperidin-1-yl)sulfonyl]-5,9,13-triazaspiro[2.11]tetradecan-5-yl]sulfonyl}-N,N-dimethylaniline] | – | – | – | – | – | – | – | – | – | 0.05% | 0.207 µM | 0.06% | > 25 µM | 12.8 µM | 0.19% | 0.07% | – | > 25 µM
CN(C)c1ccc(S(=O)(=O)N2CCCN(CC3CCCCC3)CCCN(S(=O)(=O)N3CCCCC3)CC3(CC3)C2)c(F)c1 [A40] | – | – | – | – | – | – | – | – | – | 0.04% | 0.308 µM | 0.04% | > 25 µM | > 25 µM | 0.12% | 0.19% | – | > 15.1 µM
